{"source": "patent US20040063790A1", "about": "“Methods for inhibition of angiogenesis” (The Scripps Research Institute, priority 1996, published 2004)", "key": {"[1]": {"test_system": "bFGF-induced angiogenesis", "assay": "CAM assay, growth factor-induced angiogenesis, intravenous application", "format": "in vivo, chick", "conditions": "for anti-angiogenic properties (branch points): FIG. 27, 100 μg/embryo, compared to bFGF control and compound 16; for inhibition of formation of new blood vessels induced by bFGF: 250 μg/ml, 18 hours after bFGF treatment, FIG. 12; for reducing the number of branch points of new blood vessels: FIG. 26, in decreasing order of inhibition 14, 10, 9, 12, compared to bFGF control and compound 7", "experimental": "J. Pathol., 79:597 (1975). CAMs were prepared from chick embryos for subsequent induction of angiogenesis and inhibition thereof as described in Examples 4 and 5, respectively. Ten day old chick embryos were obtained from McIntyre Poultry (Lakeside, Calif.) and incubated at 37° C. with 60% humidity. A small hole was made through the shell at the end of the egg directly over the air sac with the use of a small crafts drill (Dremel, Division of Emerson Electric Co. Racine Wis.). A second hole was drilled on the broad side of the egg in a region devoid of embryonic blood vessels determined previously by candling the egg. […] A 1.0 centimeter (cm)×1.0 cm square window was cut through the shell over the dropped CAM with the use of a small model grinding wheel (Dremel). The small window allowed direct access to the underlying CAM.\nAngiogenesis was induced by placing a 5 millimeter (mm)×5 mm Whatman filter disk (Whatman Filter paper No.1) saturated with Hanks Balanced Salt Solution (HBSS, GIBCO, Grand Island, N.Y.) or HBSS containing 150 nanograms/milliliter (ng/ml) recombinant basic fibroblast growth factor (bFGF) (Genzyme, Cambridge, Mass.) on the CAM of a 10-day chick embryo in a region devoid of blood vessels and the windows were latter sealed with tape. In other assays, 125 ng/ml bFGF was also effective at inducing blood vessel growth. For assays where inhibition of angiogenesis ws evaluated with intravenous injections of antagonists, angiogenesis was first induced with 1-2 μg/ml bFGF in fibroblast growth medium. Angiogenesis was monitored by photomicroscopy after 72 hours. CAMs were snap frozen, and 6 um cryostat sections were fixed with acetone and stained by immunofluorescence as described in Example 3C with 10 μg/ml of either anti-β1 monoclonal antibody CSAT or LM609.\nFor CAM preparations in which angiogenesis was induced with 1-2 μg/ml bFGF as previously described, synthetic peptides 69601 (control) and 66203 (SEQ ID NO: 5) were separately intravenously injected into CAM preparations 18 hours after bFGF induction of angiogenesis. The preparations were maintained for an additional 36-40 hours after which time the number of branch points were determined as previously described.\nIn other assays, peptide 85189 (SEQ ID NO: 15) was evaluated for inhibiting bFGF-induced angiogenesis in the CAM assay over a dosage range of 10 μg/embryo to 300 μg/embryo. The assay was performed as previously described.\nIn still further assays, peptide 85189 was compared to peptides 69601 and 66203 for anti-angiogenesis activity. The assay was performed as described above with the exception that 50 μg peptide were used.\nThe effectiveness of the different salt formulations of peptide 85189 was also evaluated in similar bFGF-induced CAM assays. The peptides were used at 100 μg/embryo. […] Untreated CAMs, labeled as “no cytokine” had approximately […] as many branch points as that seen with bFGF treatment, respectively 70 versus 190.\nWith the above-described protocol, the effect of MMP-2 fusion proteins, CTMMP-2(2-4), also referred to as CTMMP-2(445-467) and CTMMP-2(10-1), also referred to as CTMMP-2(274-637) was also evaluated. The assay was performed as previously described with the exception that 50 μg of fusion protein was administered to the bFGF-treated embryos. The effect of fusion protein treatment was assessed at 24 hours, 48 hours and 72 hours.\nThe 10 day old CAM preparation was used as previously described in Example 5A. Twenty-four hours after bFGF-induced angiogenesis was initiated, the organic peptidomimetics referred to as compounds 16 (81218), 17 (87292) and 18 (87293) were separately intravenously injected into the CAM preparation in a volume of 100 μl at a concentration of 1 mg/ml (100 μg/embryo) in 20% tetraglycol-PBS at pH 7.0. In parallel assays, compounds 7 (96112), 9 (99799), 10 (96229), 12 (112854) and 14 (96113) were similarly evaluated. […]"}, "αIIbβ3": {"target": "T1, αIIbβ3 (Homo sapiens, UniProt P05106+P08514)", "T1 construct": "selected purified integrins were separately immobilized in Titertek microtiter wells", "T1 sequence (P08514 32-887 limits assumed)": "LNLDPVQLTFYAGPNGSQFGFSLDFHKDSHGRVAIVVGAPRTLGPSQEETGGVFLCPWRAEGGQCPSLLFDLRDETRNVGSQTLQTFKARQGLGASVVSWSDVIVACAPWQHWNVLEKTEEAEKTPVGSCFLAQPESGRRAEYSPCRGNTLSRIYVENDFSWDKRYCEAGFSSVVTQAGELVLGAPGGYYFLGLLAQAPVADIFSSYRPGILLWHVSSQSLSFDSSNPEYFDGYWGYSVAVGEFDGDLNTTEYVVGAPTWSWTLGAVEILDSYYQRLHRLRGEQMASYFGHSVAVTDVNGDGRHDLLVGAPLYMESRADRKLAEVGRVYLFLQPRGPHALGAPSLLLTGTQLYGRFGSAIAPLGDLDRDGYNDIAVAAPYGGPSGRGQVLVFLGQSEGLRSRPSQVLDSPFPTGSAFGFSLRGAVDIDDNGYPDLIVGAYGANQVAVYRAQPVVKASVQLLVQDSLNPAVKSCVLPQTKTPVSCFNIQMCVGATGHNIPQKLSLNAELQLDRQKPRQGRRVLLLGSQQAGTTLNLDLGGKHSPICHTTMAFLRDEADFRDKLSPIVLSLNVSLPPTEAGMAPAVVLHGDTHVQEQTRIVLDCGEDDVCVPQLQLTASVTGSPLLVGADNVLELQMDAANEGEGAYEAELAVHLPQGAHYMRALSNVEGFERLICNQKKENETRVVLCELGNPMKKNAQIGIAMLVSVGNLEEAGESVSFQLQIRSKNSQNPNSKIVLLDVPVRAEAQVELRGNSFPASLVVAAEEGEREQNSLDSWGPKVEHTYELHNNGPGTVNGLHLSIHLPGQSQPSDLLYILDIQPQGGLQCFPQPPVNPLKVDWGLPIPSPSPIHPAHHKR", "T1 sequence (P08514 891-1039 partner limits assumed)": "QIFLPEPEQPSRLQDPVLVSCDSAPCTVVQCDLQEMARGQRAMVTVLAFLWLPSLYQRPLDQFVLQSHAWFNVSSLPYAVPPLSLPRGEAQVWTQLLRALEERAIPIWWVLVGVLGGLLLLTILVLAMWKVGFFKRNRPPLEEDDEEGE", "T1 sequence (P05106 27-788)": "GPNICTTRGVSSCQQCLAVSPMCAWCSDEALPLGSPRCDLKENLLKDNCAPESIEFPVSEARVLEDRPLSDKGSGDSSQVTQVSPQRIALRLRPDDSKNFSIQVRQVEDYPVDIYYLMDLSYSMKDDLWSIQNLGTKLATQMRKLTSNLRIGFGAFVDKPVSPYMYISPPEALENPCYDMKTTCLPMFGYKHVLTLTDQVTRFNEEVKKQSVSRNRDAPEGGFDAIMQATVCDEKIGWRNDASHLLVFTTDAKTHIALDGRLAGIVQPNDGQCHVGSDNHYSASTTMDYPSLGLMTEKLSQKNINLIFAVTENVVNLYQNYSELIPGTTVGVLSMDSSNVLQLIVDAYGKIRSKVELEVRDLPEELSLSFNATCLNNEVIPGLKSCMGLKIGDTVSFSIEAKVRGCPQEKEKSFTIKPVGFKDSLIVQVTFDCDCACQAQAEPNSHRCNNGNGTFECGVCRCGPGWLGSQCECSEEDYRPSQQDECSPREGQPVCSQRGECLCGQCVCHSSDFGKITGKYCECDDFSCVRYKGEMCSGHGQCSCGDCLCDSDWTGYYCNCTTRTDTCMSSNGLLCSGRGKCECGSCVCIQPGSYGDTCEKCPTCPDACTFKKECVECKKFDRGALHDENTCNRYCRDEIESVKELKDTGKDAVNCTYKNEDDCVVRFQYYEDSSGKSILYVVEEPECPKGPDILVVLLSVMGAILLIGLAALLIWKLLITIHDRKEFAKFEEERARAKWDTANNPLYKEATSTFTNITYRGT", "assay": "Ligand-receptor binding assay, immobilized αIIbβ3", "text": "(§1) Herein described is a method of identifying antagonists in a ligand-receptor binding assay in which the receptor is immobilized to a solid support and the ligand and antagonist are soluble. Also described is a ligand-receptor binding assay in which the ligand is immobilized to a solid support and the receptor and antagonists are soluble.\n(§2) Briefly, selected purified integrins were separately immobilized in Titertek microtiter wells at a coating concentration of 50 nanograms (ng) per well. The purification of the receptors used in the ligand-receptor binding assays are well known in the art and are readily obtainable with methods familiar to one of ordinary skill in the art. After incubation for 18 hours at 4° C., nonspecific binding sites on the plate were blocked with 10 milligrams/milliliter (mg/ml) of bovine serum albumin (BSA) in Tris-buffered saline. […] Radiolabeled ligands were used at concentrations of 1 nM and binding was challenged separately with unlabeled synthetic peptides.\n(§3) Following a three hour incubation, free ligand was removed by washing and bound ligand was detected by gamma counting. […] The IC50 data in micromoles (IC50 μM) are expressed as the average of duplicate data points±the standard deviation as shown in Table 2."}, "αvβ3": {"target": "T2, αvβ3 (Homo sapiens, UniProt P05106+P06756)", "T2 construct": "selected purified integrins were separately immobilized in Titertek microtiter wells", "T2 sequence (P06756 31-889 limits assumed)": "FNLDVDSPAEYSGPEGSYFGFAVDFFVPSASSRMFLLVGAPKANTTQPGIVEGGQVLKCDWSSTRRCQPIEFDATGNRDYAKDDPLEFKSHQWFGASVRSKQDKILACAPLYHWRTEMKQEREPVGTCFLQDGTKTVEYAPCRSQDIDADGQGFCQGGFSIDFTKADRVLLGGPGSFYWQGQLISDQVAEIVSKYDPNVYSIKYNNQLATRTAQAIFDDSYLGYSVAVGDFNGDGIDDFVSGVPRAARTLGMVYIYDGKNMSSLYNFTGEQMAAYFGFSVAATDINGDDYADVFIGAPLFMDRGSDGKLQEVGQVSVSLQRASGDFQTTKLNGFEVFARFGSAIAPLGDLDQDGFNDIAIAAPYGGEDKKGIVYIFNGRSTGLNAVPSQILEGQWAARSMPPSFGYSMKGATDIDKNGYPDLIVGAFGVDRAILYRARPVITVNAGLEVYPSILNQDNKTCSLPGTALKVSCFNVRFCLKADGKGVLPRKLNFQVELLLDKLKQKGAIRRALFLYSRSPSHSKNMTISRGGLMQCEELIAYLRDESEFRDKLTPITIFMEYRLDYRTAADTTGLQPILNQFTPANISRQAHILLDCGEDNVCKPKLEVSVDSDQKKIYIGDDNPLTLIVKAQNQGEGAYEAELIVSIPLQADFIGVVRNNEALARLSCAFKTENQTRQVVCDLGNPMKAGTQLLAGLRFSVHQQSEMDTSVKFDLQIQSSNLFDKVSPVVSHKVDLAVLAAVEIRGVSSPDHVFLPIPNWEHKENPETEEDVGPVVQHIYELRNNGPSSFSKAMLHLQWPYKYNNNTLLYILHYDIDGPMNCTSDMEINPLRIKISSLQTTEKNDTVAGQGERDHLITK", "T2 sequence (P06756 891-1048 partner limits assumed)": "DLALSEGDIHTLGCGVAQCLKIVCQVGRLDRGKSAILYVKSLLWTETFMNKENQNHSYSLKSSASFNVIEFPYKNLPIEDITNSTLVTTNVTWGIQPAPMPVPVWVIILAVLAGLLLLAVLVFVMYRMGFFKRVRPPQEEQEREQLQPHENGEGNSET", "T2 sequence (P05106 27-788)": "as the sequence (P05106 27-788) above", "assay": "Ligand-receptor binding assay, immobilized αvβ3", "conditions": "for preference of inhibition of fibrinogen binding, αvβ3 versus αIIbβ3: comparison of half-maximal concentrations of Table 2", "text": "as §1, §2, §3"}, "[2]": {"conditions": "radiolabeled fibrinogen, average of duplicate data points ± standard deviation, read-out: αIIbβ3 (IC50 μM)"}, "[3]": {"conditions": "radiolabeled fibrinogen, average of duplicate data points ± standard deviation, read-out: αvβ3 (IC50 μM)"}}, "note": "Like-named read-outs stand apart in the source and are kept apart here. Where a SMILES comes first, the peptide text is derived from it. [ ]: non-standard residue; d: D form.", "data": [{"smiles": "CCCS(=O)(=O)NC(Cc1ccc(OCC2CN(c3ccc(C(=N)N)cc3)C(=O)O2)cc1)C(=O)O", "note": "(centres unmarked) [Compound 17, 3-(4-amidinophenyl)-5-(4-(2-carboxy-2-N-propyl-sulfonylaminoethyl)phenoxy)methyl-2-oxazolidinone]", "values": [{"measurement": "anti-angiogenic properties (branch points)", "setting": "[1]", "result": "exhibited anti-angiogenic properties"}]}, {"smiles": "CC(C)C[C@H](NC(=O)[C@H](C)NC(=O)[C@H](CCC(=O)O)NC(=O)[C@H](CC(N)=O)NC(=O)[C@H](CC(N)=O)NC(=O)[C@H](CCCNC(=N)N)NC(=O)[C@@H](NC(=O)[C@@H](NC(=O)CN)C(C)C)C(C)C)C(=O)N[C@@H](C)C(=O)N[C@@H](CCCNC(=N)N)C(=O)N[C@@H](CC(C)C)C(=O)N[C@@H](CO)C(=O)O", "note": "[Peptide 62503] (H-GVVRNNEALARLS-OH)", "values": [{"measurement": "IC50", "setting": "αIIbβ3; fibrinogen, individual assay, read-out: αIIbβ3 IC50 (μM) FG", "result": "> 100", "unit": "µM"}, {"measurement": "IC50", "setting": "αIIbβ3; vitronectin, individual assay, read-out: αIIbβ3 IC50 (μM) VN", "result": "> 100", "unit": "µM"}, {"measurement": "IC50", "setting": "αvβ3; fibrinogen, individual assay, read-out: αvβ3 IC50 (μM) FG", "result": "> 100", "unit": "µM"}]}, {"smiles": "CCCCS(=O)(=O)N[C@H](Cc1ccc(OCCCCNC(=N)N)cc1)C(=O)O", "note": "[Compound 10]", "values": [{"measurement": "inhibition of formation of new blood vessels induced by bFGF", "setting": "[1]", "result": "almost completely inhibited"}, {"measurement": "reducing the number of branch points of new blood vessels", "setting": "[1]", "result": "effective at reducing the number of branch points"}, {"measurement": "melting point", "result": 70, "unit": "°C"}]}, {"smiles": "CC1(C)C2CCC1(CS(=O)(=O)N[C@@H](Cc1ccc(OCCCCNC(=N)N)cc1)C(=O)O)C(=O)C2", "note": "(some centres unmarked) [Compound 12]", "values": [{"measurement": "reducing the number of branch points of new blood vessels", "setting": "[1]", "result": "effective at reducing the number of branch points"}]}, {"smiles": "CCS(=O)(=O)NC(Cc1ccc(OCC2CN(c3ccc(C(=N)N)cc3)C(=O)O2)cc1)C(=O)O", "note": "(centres unmarked) [Compound 18, 3-(4-amidinophenyl)-5-(4-(2-carboxy-2-N-ethyl-sulfonylaminoethyl)phenoxy)methyl-2-oxazolidinone]", "values": [{"measurement": "anti-angiogenic properties (branch points)", "setting": "[1]", "result": "exhibited anti-angiogenic properties"}]}, {"smiles": "CC(C)[C@@H]1NC(=O)[C@@H](Cc2ccccc2)NC(=O)[C@H](CC(=O)O)NC(=O)[C@H](C)NC(=O)[C@H](CCCNC(=N)N)NC1=O", "note": "[Peptide 62185, cyclo (RADfV)] (cyclo(RAD[dF]V))", "values": [{"measurement": "preference of inhibition of fibrinogen binding, αvβ3 versus αIIbβ3", "setting": "αvβ3", "result": "preferential inhibition of fibrinogen binding to the αvβ3 receptor"}]}, {"smiles": "CC(C)C[C@@H]1NC(=O)[C@@H](Cc2ccccc2)NC(=O)[C@H](CC(=O)O)NC(=O)CNC(=O)[C@H](CCCNC(=N)N)NC(=O)CNC1=O", "note": "[Peptide 62179, cyclo (GRGDfL)] (cyclo(GRGD[dF]L))", "values": [{"measurement": "IC50", "setting": "αIIbβ3; [2]", "result": "0.055 ± 0.007", "unit": "µM"}, {"measurement": "preference of inhibition of fibrinogen binding, αvβ3 versus αIIbβ3", "setting": "αvβ3", "result": "either not as effective in blocking fibrinogen binding to αvβ3 or exhibited preferential inhibition of fibrinogen binding to αIIbβ3"}, {"measurement": "IC50", "setting": "αvβ3; [3]", "result": "0.395 ± 0.21", "unit": "µM"}]}, {"smiles": "CCCCS(=O)(=O)N[C@@H](Cc1ccc(OCCCCCNC(=N)N)cc1)C(=O)O", "note": "[Compound 14]", "values": [{"measurement": "inhibition of formation of new blood vessels induced by bFGF", "setting": "[1]", "result": "almost completely inhibited"}, {"measurement": "reducing the number of branch points of new blood vessels", "setting": "[1]", "result": "effective at reducing the number of branch points"}]}, {"smiles": "CCCCS(=O)(=O)N[C@@H](Cc1ccc(OCCCCNC(=N)N)cc1)C(=O)O", "note": "[Compound 7]", "values": [{"measurement": "melting point", "result": 70, "unit": "°C"}]}, {"smiles": "CC(C)(C)OC(=O)N[C@@H](Cc1ccc(OCCCCNC(=N)N)cc1)C(=O)O", "note": "[Compound 9]", "values": [{"measurement": "reducing the number of branch points of new blood vessels", "setting": "[1]", "result": "effective at reducing the number of branch points"}]}, {"smiles": "CSCC[C@H](NC(=O)[C@@H]1CCCN1C(=O)[C@H](CC(N)=O)NC(=O)CNC(=O)[C@H](CC(C)C)NC(=O)[C@H](CC(=O)O)NC(=O)[C@H](CS)NC(=O)[C@@H](NC(=O)[C@@H](NC(=O)[C@H](CCC(N)=O)NC(=O)[C@H](CCCNC(=N)N)NC(=O)[C@@H](N)[C@@H](C)O)C(C)C)C(C)C)C(=O)O", "note": "[Peptide 62411] (H-TRQVVCDLGNPM-OH)", "values": [{"measurement": "IC50", "setting": "αIIbβ3", "result": "> 100", "unit": "µM"}, {"measurement": "IC50", "setting": "αIIbβ3; read-out: αIIbβ3 IC50 (μM) VN, vitronectin, individual assay", "result": "> 100", "unit": "µM"}, {"measurement": "IC50", "setting": "αvβ3", "result": "> 100", "unit": "µM"}]}, {"smiles": "CC(C)[C@@H]1NC(=O)[C@@H](Cc2ccccc2)NC(=O)[C@H](CC(=O)O)NC(=O)[C@H](C)NC(=O)[C@H](CCCN=C(N)N)NC1=O", "note": "[Peptide 62185, cyclo (RADfV)] (cyclo(AD[dF]VR))", "values": [{"measurement": "IC50", "setting": "αIIbβ3; [2]", "result": "100 ± 0.001", "unit": "µM"}, {"measurement": "IC50", "setting": "αvβ3; [3]", "result": "0.885 ± 0.16", "unit": "µM"}]}, {"smiles": "CC(C)[C@@H]1NC(=O)[C@H](Cc2ccccc2)NC(=O)[C@H](CC(=O)O)NC(=O)CNC(=O)[C@@H](CCCNC(=N)N)NC(=O)CNC1=O", "note": "[Peptide 62181, cyclo (GrGDFV)] (cyclo(G[dR]GDFV))", "values": [{"measurement": "IC50", "setting": "αIIbβ3; [2]", "result": "15 ± 7.84", "unit": "µM"}, {"measurement": "preference of inhibition of fibrinogen binding, αvβ3 versus αIIbβ3", "setting": "αvβ3", "result": "preferential inhibition of fibrinogen binding to the αvβ3 receptor"}, {"measurement": "IC50", "setting": "αvβ3; [3]", "result": "1.96 ± 0.62", "unit": "µM"}]}, {"smiles": "CC(C)C[C@@H]1NC(=O)[C@@H](Cc2ccccc2)NC(=O)[C@H](CC(=O)O)NC(=O)CNC(=O)[C@H](CCCNC(=N)N)NC(=O)[C@H](C)NC1=O", "note": "[Peptide 62175, cyclo (ARGDfL)] (cyclo(ARGD[dF]L))", "values": [{"measurement": "IC50", "setting": "αIIbβ3; [2]", "result": "0.63 ± 0.18", "unit": "µM"}, {"measurement": "preference of inhibition of fibrinogen binding, αvβ3 versus αIIbβ3", "setting": "αvβ3", "result": "either not as effective in blocking fibrinogen binding to αvβ3 or exhibited preferential inhibition of fibrinogen binding to αIIbβ3"}, {"measurement": "IC50", "setting": "αvβ3; [3]", "result": "1.05 ± 0.07", "unit": "µM"}]}, {"smiles": "Cl.Cl.N=C(N)c1ccc(N2CC(COc3ccc(CC(N)C(=O)O)cc3)OC2=O)cc1", "note": "(centres unmarked)", "values": [{"measurement": "melting point", "result": "165 °C (dec.)"}]}]}
